Data on 2 molecules can be found in US11530197B2, “Analogs for the treatment of disease” (Insilico Medicine IP Limited, priority 2021, dated 2022).

Data set [1] concerns Collagen I (COL1A1) in LX-2 cells. Description: Collagen and Alpha-SMA in LX-2 (Western blot after TGF-β stimulation).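 Further: cells serum-starved in 0.4% FBS before treatment, lysates analysed by Western blot, DMSO-only wells as blank and TGF-β alone as maximal induction control, three independent experiments.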 The class given is cell-based. The note with it: Homo sapiens, 4 ng/ml TGF-β for 48 hours, Collagen I normalized to GAPDH. (In general: A western blot detects proteins with antibodies after separation by electrophoresis.)
Procedure: 3 ml of 0.25% Trypsin-EDTA solution was then added and cells were incubated at 37° C. for 5 min for each T150-flask. 7 ml of culture medium was added to stop trypsinization. The cells were centrifuged at 300×g for 5 min. Supernatant medium was discarded and cells were re-suspended with fresh culture medium. The cells were counted with Cell viability analyzer. 5.0E+05 cells/well were seeded into 6-well plate containing 2.0 mL of culture medium. The cells were cultured overnight at 37° C. The next day, the complete medium was replaced with medium with 0.4% FBS for starvation. […] In parallel, medium containing only DMSO and TGF-β was used as blank control and positive control, respectively. TGF-β induction was used as maximum induction positive control. The culture medium was discarded at the end of induction. Cells were washed once using ice-cold DPBS. RIPA buffer was added to lyse the cells for 20 min. The cells were then scraped off the culture plate, collected in a tube and centrifuged. The supernatant was stored at −80° C. The total amount of protein in the lysate was determined using BCA Protein Assay kit. The cell treatment of fibrosis assay was performed in three independent experiments for each compound.
All the lysate samples were adjusted to the same protein concentration with RIPA buffer after BCA assay. […] The denatured samples were used for electrophoresis. Western blot was performed according to the standard protocols. The same volume of protein was loaded onto 4-12% Bis-Tris gel. Duplicate lysates of samples were loaded onto two gels. The gels were run for 0.5 h at 80 V and 120 V for another 1 h. When the electrophoresis was completed, the gels containing target protein Collagen I (COL1A1) were transferred onto NC membrane using Trans-Blot Electrophoretic Transfer Cell for 90 min at 100 V. The iBlot™ 2 Gel Transfer Device was used to transfer α-SMA and GAPDH at 20 V for 7 min. All the membranes were blocked in TBST buffer with 5% nonfat dry milk in at RT for 1 h and then incubated with primary antibody anti-COL1A1 and anti-α-SMA in TBST buffer containing 5% BSA at 4° C. overnight. For GAPDH detection, the membrane with α-SMA immunoblots were stripped with Restore™ Western Blot Stripping Buffer after detection. And the membranes were re-blocked and then re-probed with primary antibody anti-GAPDH antibody at room temperature (RT) for 2 h. After incubation with primary antibodies, membranes were washed with TBST, then incubated with the secondary antibody at RT for 1 h. Blots were visualized using the instrument Image Quant LAS-4000. The chemiluminescent signals derived from ECL Western blotting reagents were captured. The bands integrated intensity from 16-bit blot images was used for quantitation with the software (1D component of ImageQuant TL). The quantification raw data of the two duplicated gels was obtained from ImageQuant TL. Collagen I and α-SMA proteins expression level was normalized to GAPDH for each gel. The average normalization data of the two duplicated gels was calculated and applied to calculate IC50 using an equation for a sigmoidal dose response (variable slope) of GraphPad™ Prism software. The equation is Y=Bottom+(Top-Bottom)/(1+10^((Log IC50−X)*Hillslope). Note: X is the logarithm of compound concentration, Y is the average normalization data
The target in a further data set is MAP4K4 (h) (Homo sapiens (Human), UniProt O95819). Description: MAP4K4 Human STE Kinase Enzymatic Radiometric Assay.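 Further: kinase activity remaining relative to the DMSO control, IC50 derived from sigmoidal variable-slope curve fits, no preincubation of compound with enzyme before ATP start.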 The note with it: ATP 200 μM; 40 min at room temperature. The class given is biochemical.
Data set [2] is described as follows: Metabolic stability in human liver microsomes.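 Further: NADPH-supplemented human liver microsomes sampled at 0, 5, 10, 20, 30 and 60 min, parent compound quantified by LC-MS/MS, intrinsic clearance from first-order decay, no-cofactor incubation as control.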 Format: in vitro ADME. As to conditions: LM Clint; 1 μM test compound, 0.5 mg protein/mL microsome, 37° C., up to 60 min. For orientation: Liver microsomes are vesicles of endoplasmic reticulum, rich in cytochrome P450 enzymes.
Procedure: Test Compound an Control Working Solution Preparation: Working solution: 5 μL of compound and control stock solution (10 mM in dimethyl sulfoxide (DMSO)) were diluted with 495 µL of acetonitrile (ACN) (intermediate solution concentration: 100 μM, 99% ACN).
Preparation Procedure: The appropriate amount of NADPH powder was weighed and diluted into a 10 mM MgCl2 solution (working solution concentration: 10 unit/mL; final concentration in reaction system: 1 unit/mL).
Preparation Procedure: The appropriate concentrations of microsome working solutions were prepared in 100 mM potassium phosphate buffer.
Stop Solution Preparation: Cold (4° C.) acetonitrile (ACN) containing 200 ng/mL tolbutamide and 200 ng/mL labetalol as internal standards (IS) was used as the stop solution.
Dilute liver microsomes to 0.56 mg/mL in 100 mM phosphate buffer.
Transfer 445 μL microsome working solutions (0.56 mg/mL) into pre-warmed ‘Incubation’ plates T60 and NCF60, Then pre-incubate ‘Incubation’ plates T60 and NCF60 for 10 min at 37° C. with constant shaking. Transfer 54 μL liver microsomes to blank plate, then add 6 μL NAPDH cofactor to blank plate, and then add 180 μL quenching solution to blank plate.
2.5.4 Add 5 μL compound working solution (100 μM) into ‘incubation’ plates (T60 and NCF60) containing microsomes and mix 3 times thoroughly.
For the NCF60 plate, add 50 μL of buffer and mix 3 times thoroughly. Start timing; plate will be incubated at 37° C. for 60 min while shaking.
For the T60 plate, mix 3 times thoroughly, and immediately remove 54 μL mixture for the 0-min time point to ‘Quenching’ plate. Then add 44 μL NAPDH cofactor to incubation plate (T60). Start timing; plate will be incubated at 37° C. for 60 min while shaking.
At 5, 10, 20, 30, and 60 min, add 180 μL quenching solution to ‘Quenching’ plates, mix once, and serially transfer 60 μL sample from T60 plate per time point to ‘Quenching’ plates.
For NCF60: mix once, and transfer 60 μL sample from the NCF60 incubation to ‘Quenching’ plate containing quenching solution at the 60-min time point.
All sampling plates are shaken for 10 min, then centrifuged at 4000 rpm for 20 minutes at 4° C.
Transfer 80 μL supernatant into 240 μL HPLC water, and mix by plate shaker for 10 min.
Each bioanalysis plate was sealed and shaken for 10 minutes prior to LC-MS/MS analysis.
The equation of first order kinetics was used to calculate T½ and Intrinsic clearance (CLint mic) in (L/min/mg).
The next data set concerns the target TNIK(h) (Homo sapiens (Human), UniProt Q9UKE5). As to the kind of experiment: TNIK Human STE Kinase Enzymatic Radiometric Assay.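 Further: remaining kinase activity relative to DMSO control, compound added without preincubation, reaction started with ATP, IC50 from variable-slope sigmoidal dose-response fit.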 As to conditions: ATP 70 μM; 40 min at room temperature; read-out: TNIK (IC50). Format: biochemical.

A value given as a limit tells only on which side of the number the result lay.

TNIK(h), sequence (Q9UKE5 whole entry): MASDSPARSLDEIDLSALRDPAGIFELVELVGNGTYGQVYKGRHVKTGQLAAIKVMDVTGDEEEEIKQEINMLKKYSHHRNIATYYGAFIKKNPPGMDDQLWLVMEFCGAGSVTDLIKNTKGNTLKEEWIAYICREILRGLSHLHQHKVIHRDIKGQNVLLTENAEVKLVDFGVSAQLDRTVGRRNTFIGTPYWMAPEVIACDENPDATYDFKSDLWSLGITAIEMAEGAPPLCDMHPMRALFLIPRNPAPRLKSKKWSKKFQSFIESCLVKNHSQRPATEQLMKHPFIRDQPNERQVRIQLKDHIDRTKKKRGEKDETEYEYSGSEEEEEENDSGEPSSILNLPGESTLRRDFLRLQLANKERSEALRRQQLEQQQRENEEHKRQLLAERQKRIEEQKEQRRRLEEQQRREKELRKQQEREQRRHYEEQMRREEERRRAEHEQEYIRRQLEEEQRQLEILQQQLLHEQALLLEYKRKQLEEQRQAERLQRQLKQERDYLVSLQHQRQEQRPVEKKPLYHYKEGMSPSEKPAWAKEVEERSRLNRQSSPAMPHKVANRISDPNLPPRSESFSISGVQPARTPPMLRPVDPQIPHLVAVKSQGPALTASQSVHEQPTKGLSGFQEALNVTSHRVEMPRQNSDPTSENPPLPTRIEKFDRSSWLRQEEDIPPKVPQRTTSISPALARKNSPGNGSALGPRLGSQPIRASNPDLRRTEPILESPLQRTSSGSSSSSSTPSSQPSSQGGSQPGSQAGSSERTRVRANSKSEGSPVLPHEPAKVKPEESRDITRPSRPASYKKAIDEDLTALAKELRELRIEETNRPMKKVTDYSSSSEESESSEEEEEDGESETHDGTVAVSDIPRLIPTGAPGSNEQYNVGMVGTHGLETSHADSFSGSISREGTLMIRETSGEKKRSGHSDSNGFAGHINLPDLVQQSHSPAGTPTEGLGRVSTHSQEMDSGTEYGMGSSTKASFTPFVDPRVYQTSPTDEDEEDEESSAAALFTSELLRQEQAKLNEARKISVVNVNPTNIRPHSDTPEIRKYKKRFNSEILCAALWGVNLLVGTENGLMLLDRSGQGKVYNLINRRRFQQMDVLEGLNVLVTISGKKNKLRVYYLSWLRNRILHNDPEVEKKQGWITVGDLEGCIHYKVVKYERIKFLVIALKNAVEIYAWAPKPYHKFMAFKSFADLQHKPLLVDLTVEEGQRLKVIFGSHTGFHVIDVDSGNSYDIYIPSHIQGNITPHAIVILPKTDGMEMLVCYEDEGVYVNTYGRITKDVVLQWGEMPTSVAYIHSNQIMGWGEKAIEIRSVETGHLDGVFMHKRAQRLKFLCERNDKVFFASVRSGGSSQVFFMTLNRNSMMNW
MAP4K4 (h), sequence (O95819 whole entry): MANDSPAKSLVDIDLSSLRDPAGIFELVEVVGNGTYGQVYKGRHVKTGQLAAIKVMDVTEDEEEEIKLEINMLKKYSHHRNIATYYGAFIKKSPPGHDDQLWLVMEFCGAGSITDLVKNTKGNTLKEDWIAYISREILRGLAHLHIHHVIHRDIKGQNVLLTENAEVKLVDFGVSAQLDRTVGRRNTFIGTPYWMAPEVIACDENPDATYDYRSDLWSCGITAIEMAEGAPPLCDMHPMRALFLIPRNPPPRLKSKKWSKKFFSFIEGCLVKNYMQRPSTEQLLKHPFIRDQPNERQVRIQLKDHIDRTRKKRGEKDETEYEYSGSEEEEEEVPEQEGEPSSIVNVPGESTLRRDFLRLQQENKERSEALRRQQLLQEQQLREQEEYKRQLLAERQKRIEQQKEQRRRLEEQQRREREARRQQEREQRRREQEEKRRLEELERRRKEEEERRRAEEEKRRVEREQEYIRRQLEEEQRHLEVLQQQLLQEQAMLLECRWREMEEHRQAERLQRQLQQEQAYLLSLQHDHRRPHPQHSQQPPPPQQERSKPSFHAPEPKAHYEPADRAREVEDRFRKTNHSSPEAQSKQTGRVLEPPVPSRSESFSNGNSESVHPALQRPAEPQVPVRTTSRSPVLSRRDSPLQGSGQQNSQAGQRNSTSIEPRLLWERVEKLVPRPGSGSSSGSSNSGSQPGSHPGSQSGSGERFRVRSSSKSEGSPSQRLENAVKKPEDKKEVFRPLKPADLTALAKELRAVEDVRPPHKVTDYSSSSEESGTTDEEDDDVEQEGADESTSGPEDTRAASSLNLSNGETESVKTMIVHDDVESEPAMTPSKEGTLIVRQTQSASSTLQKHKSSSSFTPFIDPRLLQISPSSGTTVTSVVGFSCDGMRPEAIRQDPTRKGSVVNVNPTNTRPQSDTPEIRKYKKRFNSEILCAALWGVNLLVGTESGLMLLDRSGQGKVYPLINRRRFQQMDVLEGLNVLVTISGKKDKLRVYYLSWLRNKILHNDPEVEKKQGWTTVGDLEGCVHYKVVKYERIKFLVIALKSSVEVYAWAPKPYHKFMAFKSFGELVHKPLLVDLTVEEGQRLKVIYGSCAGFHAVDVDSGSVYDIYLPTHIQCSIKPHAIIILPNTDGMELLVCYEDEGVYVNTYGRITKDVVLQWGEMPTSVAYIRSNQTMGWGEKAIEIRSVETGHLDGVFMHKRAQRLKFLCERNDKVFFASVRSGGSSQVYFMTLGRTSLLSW
Procedure for MAP4K4 (h): (§1) The reaction is initiated by the addition of the Mg/ATP mix. After incubation for 40 minutes at room temperature, the reaction is stopped by the addition of phosphoric acid to a concentration of 0.5%.
INCUBATION: 40 min at Room temperature
COMPOUND DILUTION SCHEME: All compounds supplied were prepared to a working stock of 50× final assay concentration in 100% DMSO. Where appropriate, more concentrated stocks were diluted manually to 50× using 100% DMSO. Compounds supplied as powders were reconstituted to a 10 mM stock in 100% DMSO before further dilution to 50×.
ASSAY PROCEDURE: The required volume of the 50× stock of test compound was added to the assay before a reaction mix containing the enzyme and substrate was added. The reaction was initiated by the addition of ATP at the selected concentration. There was no pre-incubation of the compound with the enzyme/substrate mix prior to ATP addition.
Results are expressed as kinase activity remaining, as a percentage of the DMSO control. This is calculated using the following formula: Mean of Sample Counts−Mean of Blank Counts/Mean of Control Counts
(§2) For IC50 determinations, data are analyzed using XLFit version 5.3 (ID Business Solutions). Sigmoidal dose-response (variable slope) curves are fit based on the mean result for each test concentration using non-linear regression analysis. Where the top and/or bottom of the curve fall >10% out with 100 and 0, respectively, either or both of these limits may be constrained at 100 and 0, provided that the QC criterion on R2 is met.
Procedure for TNIK(h): as §1
INCUBATION: 40 min at Room temperature
COMPOUND DILUTION SCHEME: All compounds supplied were prepared to a working stock of 50× final assay concentration in 100% DMSO. Where appropriate, more concentrated stocks were diluted manually to 50× using 100% DMSO. Compounds supplied as powders were reconstituted to a 10 mM stock in 100% DMSO before further dilution to 50×. ASSAY PROCEDURE: The required volume of the 50× stock of test compound was added to the assay before a reaction mix containing the enzyme and substrate was added. The reaction was initiated by the addition of ATP at the selected concentration. There was no pre-incubation of the compound with the enzyme/substrate mix prior to ATP addition. […] Results are expressed as kinase activity remaining, as a percentage of the DMSO control. This is calculated using the following formula:
as §2

For the molecule `CN1CCN(c2ccc(NC(=O)c3c[nH]c(-c4c(-c5ccc(F)cc5)ncn4[C@H]4CC[C@H](O)CC4)n3)cc2)CC1` [Compound 159, 5′-(4-fluorophenyl)-3′-((1r,4r)-4-hydroxycyclohexyl)-N-(4-(4-methylpiperazin-1-yl)phenyl)-1H,3′H-[2,4′-biimidazole]-4-carboxamide], the 50% inhibitory concentration (IC50) – broadly, the concentration that inhibits the measured activity by half – in data set [1] lay in the range of 0.1 to 1 nM; against MAP4K4 (h) it was 12 to 120 nM; at TNIK(h) it was 1 to 12 nM. For the same molecule, the “Human Liver Microsome (μM/min/mg)” value in data set [2] is on record as “++ (10-100 μM/min/mg as ++)”.
In the case of `O=C(Nc1ccc(N2CCNCC2)cc1)c1c[nH]c(-c2c(-c3ccc(F)cc3)ncn2CC(F)(F)F)n1` [Compound 167, 5′-(4-fluorophenyl)-N-(4-(piperazin-1-yl)phenyl)-3′-(2,2,2-trifluoroethyl)-1H,3′H-[2,4′-biimidazole]-4-carboxamide], the IC50 in data set [1] is under 0.1 nM; against MAP4K4 (h), over 120 nM; on TNIK(h) it was 12 to 120 nM. Also, the “Human Liver Microsome (μM/min/mg)” value in data set [2] is “++ (10-100 μM/min/mg as ++)”.
